± gives the expanded uncertainty stated by the source.
Details: 293.15 K; 101.33 kPa; Liquid; Vibrating tube method

Compound | mass density [kg/m3]
CN(CCO)CCO [N-methyldiethanolamine] | 1037.7 ± 0.3
NCCO [2-aminoethan-1-ol] | 1017.9 ± 0.3

From the NIST ThermoML archive (doi:10.1016/j.fluid.2012.01.029)
